Test results reported in patent US20100331239A1, “CD14 AND PEPTIDES THEREOF FOR PROTECTION OF CELLS AGAINST CELL DEATH” (THE MEDICAL RESEARCH, INFRASTRUCTURE AND HEALTH SERVICES, priority 2008, published 2010).

How the values were obtained:
[1] = system: intracellular expression of MO2 in lymphocytes; assay: Blocking of monocyte secretion of CD14 in vitro; intracellular MO2 staining in lymphocytes; type: cell-based; conditions: cell secretion blocked; staining with anti MO2 antibodies
Excerpt: Further support for the concept that lymphocytes are capable of MO2 uptake is found in another experiment in which monocyte secretion of CD14 in vitro was blocked with Brefeldin A (a drug blocking the Golgi system thus inhibiting cell secretion).

[2] = system: human lymphocytes and human CD3 positive lymphocytes; assay: Gliotoxin- or PMA-induced apoptosis of human mononuclear cells cultured overnight; FACS readout by DiOC6(3), 7AAD or cell size; type: cell-based; conditions: for protection of lymphocytes from gliotoxin-induced apoptosis: CD3+ cultures, DioC6(3) staining, pMO2 0.5 or 0.25 mg/ml (0.2 and 0.1 mM), FIG. 11; for protective (anti-apoptotic) effect in vitro: DiOC6(3), 7AAD and cell size, FIGS. 11-13
Experimental: The changes in the mitochondria membrane potential can be measured with 3,3′-Dihexyloxacarbocyanine iodide (Dioc6(3)). The binding to the mitochondria membrane is relative to its potential, the highest binding occurs in live and intact cells; the lowest in dead cells. The binding is monitored by flow cytometry (FL1 channel).
After overnight culture (see below), cells are washed in PBS and are treated with 40 nM DiOC6(3) for 15 min at 37° C. Cells are then washed in PBS, stained for lymphocytes surface markers such as CD3/CD4/CD8, with the appropriate antibodies, for 30 min at 4° C., washed again in PBS, resuspended in 0.5 ml PBS and analyzed using the FACS (flow cytometry).
7AAD is a nucleic acid dye that binds to […] DNA, selectively to GC regions of DNA. No binding is observed in live cells. The binding to apoptotic cells is proportional to the degree of apoptosis and membrane damage. The 7AAD fluorescence is detected in the far-red range of the spectrum (650 nm), in the FL3 channel.
After overnight culture (see below), cells are washed with PBS and are stained with monoclonal antibodies (CD3/4/8) for 30 min at 4° C., then washed again in PBS. Cells are then incubated with 7AAD (20 μg/ml) for 20 min at 4° C. in the dark and directly analyzed using the FACS (flow cytometry).
As a result of the process of apoptosis, cells undergo a cytoplasm shrinkage, which can be detected as a decrease in cell size as observed by the forward scatter position of the cells analyzed by FACS; the smaller lymphocytes are apoptotic, the larger are intact.
Mononuclear cells, freshly obtained from peripheral blood on a Ficoll-Hypaque gradient are washed in PBS and resuspended in RPMI supplemented with 10% fetal calf serum, glutamine, antibiotics, non-essential amino acids and sodium pyruvate, at a concentration of 4×10^6 cells per ml. Cells (0.5 ml per well) are incubated overnight, in 24 well plates, in the presence of Gliotoxin (0.1 μg/ml) or PMA (1 μg/ml) and with pMO2 or pSCR peptides (0.2, 0.1, 0.05 mM equivalent to 0.5, 0.25 and 0.125 mg/ml); as a control DMSO—the diluent of the peptides—was used at the appropriate dilution or with recombinant human CD14 (10 and 5 μg/ml). For the experiments aimed at neutralizing the human rCD14, monoclonal antibodies against CD14 or against actin (as a control) are added, together with the CD14, at a final concentration of 15 μg/ml.
After the overnight incubation, cells are processed for apoptosis assessment using the methods described above.
The effect of recombinant human CD14 on the induction of apoptosis in human lymphocytes and in human CD3 positive lymphocytes was tested in vitro. Human mononuclear cells obtained from healthy individuals were incubated with apoptosis inducers, gliotoxin or PMA. […] Namely, recombinant human CD14 protects lymphocytes from gliotoxin-induced apoptosis. […] Two parameters were measured: cell size (A), and mitochondrial membrane potential determined by Dioc6 (3) binding (B). In (A) there is a shift to the left (characteristic to apoptotic cells) under gliotoxin treatment compared to “medium”, and a reversal to normal size in the presence of rhCD14. In (B) low binding of Dioc6 (3) in the presence of gliotoxin (characteristic to apoptotic cells) can be observed, and the effect is reversed by rhCD14.
In addition, in order to investigate the spectrum of effective concentrations of rhCD14, mononuclear cells were cultured overnight in the presence of gliotoxin and varying concentrations of rhCD14, ranging from 10 to 0.6 μg/ml. Apoptosis of CD3+ cells was measured with Dioc6(3). As expected, cells cultured without gliotoxin included a very low number of apoptotic cells, about 0.3% of the cultured cells.
As explained above, the epitopes recognized by this monoclonal MO2 antibody were mapped using a random peptide library, and one of the specific peptides (amino acids 139-160 of CD14; pMO2) was synthesized. […]

[3] = system: CD3 positive and CD3 negative cells; assay: Intracellular binding / penetration of pMO2-biotin into mononuclear cells (streptavidin-APC, FACS); type: cell-based, human
Experimental: The cells were incubated for 3 hours with pMO2-biotin or DMSO (the peptide diluent) as a control. In order to visualize the biotin-labeled pMO2, the cells were washed and stained with anti-CD3 antibodies and fluorescent streptavidin (streptavidin-APC), with or without prior fixation and permeabilization.

[4] = 0.2 mM peptide, gliotoxin, FIGS. 14, 15

C[C@H]1CCC/C=C/[C@@H]2C[C@H](O)C[C@H]2[C@H](O)/C=C/C(=O)O1 [Brefeldin A]
change of intracellular expression of MO2 in lymphocytes [1]: substantial decrease

ALGTSLARLSNRLWSVGTAWSR (listed as Homo sapiens) [pSCR, scrambled control peptide based on the same amino acids as pMO2, reference compound]
efficiency in protecting cells from apoptosis [2, 4]: no protection
protection of lymphocytes from gliotoxin-induced apoptosis [2]: not
protective (anti-apoptotic) effect in vitro ([2]; gliotoxin): did not show any protective effect

ATGLALSSLRLRNVSWATGRSW [pMO2]
penetration into lymphocytes ([3]; 3 hours incubation with pMO2-biotin, visualized only upon fixation and permeabilization, FIG. 16): penetrates lymphocytes
time of incubation for penetration into the majority of the lymphocytes ([3]; CD3 positive and CD3 negative cells in vitro, FIG. 17): ≤ 10 min
percent protection from apoptosis ([2]; 0.05 mM peptide, gliotoxin vs gliotoxin and control diluent, FIG. 14): about 45%
efficiency in protecting cells from apoptosis ([2]; 0.1 mM peptide, gliotoxin, FIG. 14): very high efficiency
efficiency in protecting cells from apoptosis [2, 4]: very high efficiency
protection of lymphocytes from gliotoxin-induced apoptosis [2]: equally protect
protective (anti-apoptotic) effect in vitro ([2]; gliotoxin): retain the anti-apoptotic effect of the whole recombinant human CD14

B1: rhCD14: recombinant human soluble CD14 polypeptide, not anchored to the cell membrane (SEQ ID NO: 5) (protein, listed as Homo sapiens)
chain: MERASCLLLLLLPLVHVSATTPEPCELDDEDFRCVCNFSEPQPDWSEAFQCVSAVEVEIHAGGLNLEPFLKRVDADADPRQYADTVKALRVRRLTVGAAQVPAQLLVGALRVLAYSRLKELTLEDLKITGTMPPLPLEATGLALSSLRLRNVSWATGRSWLAELQQWLKPGLKVLSIAQAHSPAFSCEQVRAFPALTSLDLSDNPGLGERGLMAALCPHKFPAIQNLALRNTGMETPTGVCAALAAAGVQPHSLDLSHNSLRATVNPSAPRCMWSSALNSLNLSFAGLEQVPKGLPAKLRVLDLSCNRLNRAPQPDELPEVDNLTLDGNPFLVPGTALPHEGSMNSGVVPACARSTLSVGVSGTLVLLQGARGFA
protection of lymphocytes from gliotoxin-induced apoptosis [2]: equally protect
effect on induced apoptosis of lymphocytes and of CD3 positive lymphocytes ([2]; apoptosis inducers gliotoxin or PMA, added during the incubation): blocked significantly
concentration at which inhibition of apoptosis is already effective ([2]; gliotoxin, overnight, rhCD14 titrated 10 to 0.6 μg/ml, CD3+ cells, Dioc6(3), FIG. 6): 1.25 µg/mL
